Experimental data as given in patent US11319315B2, “Cyclohexyl acid triazole azoles as LPA antagonists” (BRISTOL-MYERS SQUIBB COMPANY, priority 2017, dated 2022).

The compounds below were run against T1, human LPA1 (Homo sapiens, UniProt Q92633) (assay: LPA1 functional antagonist assay (LPA-induced calcium flux in CHO cells overexpressing human LPA1)). Settings: inhibition of calcium flux induced by 10 nM LPA, CHO cells overexpressing human LPA1; read-out: hLPA1 IC50.
T1 construct: expressed in transfected cells; host or cells: Chinese hamster ovary (CHO) cells
Assay type: cell-based
Method in brief: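 CHO cells overexpressing human LPA1, dye-loaded 30 min at 37 °C, then given compound (0.08 nM–5 μM final, 0.5% DMSO) in HBSS/20 mM HEPES/0.1% fatty-acid-free BSA for 20 min at room temperature before 10 nM LPA. IC50 as 50% inhibition of LPA-evoked calcium flux, 4-parameter logistic fit.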

T1 sequence (Q92633 whole entry): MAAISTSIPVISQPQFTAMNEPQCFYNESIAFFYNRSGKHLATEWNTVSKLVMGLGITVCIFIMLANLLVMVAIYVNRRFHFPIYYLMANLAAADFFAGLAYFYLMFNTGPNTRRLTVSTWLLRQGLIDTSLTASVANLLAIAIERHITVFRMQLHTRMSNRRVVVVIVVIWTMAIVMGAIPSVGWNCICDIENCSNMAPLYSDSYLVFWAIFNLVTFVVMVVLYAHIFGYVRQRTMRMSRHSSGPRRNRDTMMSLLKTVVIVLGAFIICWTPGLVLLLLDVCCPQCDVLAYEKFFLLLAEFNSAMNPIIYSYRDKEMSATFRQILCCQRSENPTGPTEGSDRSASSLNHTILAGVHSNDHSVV

| Structure (SMILES) | IC50 [nM] |
| --- | --- |
| Cc1ccc(Oc2nnn(Cc3c(-c4ccc(O[C@H]5CCC[C@H](C(=O)O)C5)c(C)n4)nnn3C)n2)cc1 [Example 326, (1S,3S)-3-((2-methyl-6-(1-methyl-5-((5-(p-tolyloxy)-2H-tetrazol-2-yl)methyl)-1H-1,2,3-triazol-4-yl)pyridin-3-yl)oxy)cyclohexane-1-carboxylic acid] | 23 |
| Cc1nc(-c2nnn(C)c2Cn2nnc(CC(C)C)n2)ccc1O[C@H]1CCC[C@H](C(=O)O)C1 [Example 327, (1S,3S)-3-((6-(5-((5-isobutyl-2H-tetrazol-2-yl)methyl)-1-methyl-1H-1,2,3-triazol-4-yl)-2-methylpyridin-3-yl)oxy)cyclohexane-1-carboxylic acid] | 28 |
| Cc1nc(-c2nnn(C)c2Cn2nnnc2C2CCCC2)ccc1O[C@H]1CCC[C@H](C(=O)O)C1 [Example 330, (1S,3S)-3-((6-(5-((5-cyclopentyl-1H-tetrazol-1-yl)methyl)-1-methyl-1H-1,2,3-triazol-4-yl)-2-methylpyridin-3-yl)oxy)cyclo-hexane-1-carboxylic acid] | 385 |
| Cc1nc(-c2nnn(C)c2Cn2nnc(CC3CCCC3)n2)ccc1O[C@H]1CCC[C@H](C(=O)O)C1 [Example 331, (1S,3S)-3-((6-(5-((5-(cyclopentyl-methyl)-2H-tetrazol-2-yl)methyl)-1-methyl-1H-1,2,3-triazol-4-yl)-2-methylpyridin-3-yl)oxy)cyclohexane-1-carboxylic acid] | 7 |
| Cc1nc(-c2nnn(C)c2Cn2nnc(OC3CCC3)n2)ccc1O[C@H]1CCC[C@H](C(=O)O)C1 [Example 333, (1S,3S)-3-[(6-{5-[(5-cyclobutoxy-2H-1,2,3,4-tetrazol-2-yl)methyl]-1-methyl-1H-1,2,3-triazol-4-yl}-2-methylpyridin-3-yl)oxy]cyclo-hexane-1-carboxylic acid] | 48 |
| Cc1nc(-c2nnn(C)c2Cn2nnc(OCC3CC(F)(F)C3)n2)ccc1O[C@H]1CCC[C@@H](C(=O)O)C1 [Example 334, (1R,3S)-3-({6-[5-({5-[(3,3-difluoro-cyclobutyl)methoxy]-2H-1,2,3,4-tetrazol-2-yl}methyl)-1-methyl-1H-1,2,3-triazol-4-yl]-2-methylpyridin-3-yl}oxy)cyclohexane-1-carboxylic acid] | 258 |
| Cc1nc(-c2nnn(C)c2Cn2nnc(OC3CCC3)n2)ccc1O[C@H]1CCC[C@@H](C(=O)O)C1 [Example 335, (1R,3S)-3-[(6-{5-[(5-cyclobutoxy-2H-1,2,3,4-tetrazol-2-yl)methyl]-1-methyl-1H-1,2,3-triazol-4-yl}-2-methylpyridin-3-yl)oxy]cyclo-hexane-1-carboxylic acid] | 405 |
| Cc1nc(-c2nnn(C)c2Cn2nnc(OC3CCCC3)n2)ccc1O[C@H]1CCC[C@H](C(=O)O)C1 [Example 336, (1S,3S)-3-{[6-(5-{[5-(cyclopentyl-oxy)-2H-1,2,3,4-tetrazol-2-yl]methyl}-1-methyl-1H-1,2,3-triazol-4-yl)-2-methylpyridin-3-yl]oxy}cyclohexane-1-carboxylic acid] | 67 |
| Cc1nc(-c2nnn(C)c2Cn2nnc(OCC3CC3)n2)ccc1O[C@H]1CCC[C@@H](C(=O)O)C1 [Example 339, (1R,3S)-3-{[6-(5-{[5-(cyclopropyl-methoxy)-2H-1,2,3,4-tetrazol-2-yl]methyl}-1-methyl-1H-1,2,3-triazol-4-yl)-2-methylpyridin-3-yl]oxy}cyclohexane-1-carboxylic acid] | 192 |
| Cc1nc(-c2nnn(C)c2Cn2nnc(OCc3ccccc3)n2)ccc1O[C@H]1CCC[C@H](C(=O)O)C1 [Example 342, (1S,3S)-3-{[6-(5-{[5-(benzyloxy)-2H-1,2,3,4-tetrazol-2-yl]methyl}-1-methyl-1H-1,2,3-triazol-4-yl)-2-methylpyridin-3-yl]oxy}cyclo-hexane-1-carboxylic acid] | 11 |
| Cc1nc(-c2nnn(C)c2Cn2nnc(S(C)(=O)=O)n2)ccc1O[C@H]1CCC[C@H](C(=O)O)C1 [Example 343, (1S,3S)-3-[(6-{5-[(5-methane-sulfonyl-2H-1,2,3,4-tetrazol-2-yl)methyl]-1-methyl-1H-1,2,3-triazol-4-yl}-2-methylpyridin-3-yl)oxy]cyclohexane-1-carboxylic acid] | 1100 |
| CCCCOc1nnn(Cc2c(-c3ccc(O[C@H]4CCC[C@H](C(=O)O)C4)c(C)n3)nnn2C)n1 [Example 345, (1S,3S)-3-[(6-{5-[(5-butoxy-2H-1,2,3,4-tetrazol-2-yl)methyl]-1-methyl-1H-1,2,3-triazol-4-yl}-2-methylpyridin-3-yl)oxy]cyclo-hexane-1-carboxylic acid] | 32 |
| CCCOc1nnn(Cc2c(-c3ccc(O[C@H]4CCC[C@@H](C(=O)O)C4)c(C)n3)nnn2C)n1 [Example 347, (1R,3S)-3-[(2-methyl-6-{1-methyl-5-[(5-propoxy-2H-1,2,3,4-tetrazol-2-yl)methyl]-1H-1,2,3-triazol-4-yl}pyridin-3-yl)oxy]cyclohexane-1-carboxylic acid] | 270 |
| Cc1nc(-c2nnn(C)c2Cn2nnc(OCC3CC3)n2)ccc1O[C@H]1CCC[C@H](C(=O)O)C1 [Example 348, (1S,3S)-3-{[6-(5-{[5-(cyclopropyl-methoxy)-2H-1,2,3,4-tetrazol-2-yl]methyl}-1-methyl-1H-1,2,3-triazol-4-yl)-2-methylpyridin-3-yl]oxy}cyclohexane-1-carboxylic acid] | 26 |
| Cc1nc(-c2nnn(C)c2Cn2nnnc2S(C)(=O)=O)ccc1O[C@H]1CCC[C@H](C(=O)O)C1 [Example 350, (1S,3S)-3-[(6-{5-[(5-methanesul-fonyl-1H-1,2,3,4-tetrazol-1-yl)methyl]-1-methyl-1H-1,2,3-triazol-4-yl}-2-methylpyridin-3-yl)oxy]cyclohexane-1-carboxylic acid] | 1240 |
| CSc1nnnn1Cc1c(-c2ccc(O[C@H]3CCC[C@H](C(=O)O)C3)c(C)n2)nnn1C [Example 352, (1S,3S)-3-{[2-methyl-6-(1-methyl-5-{[5-(methylsulfanyl)-1H-1,2,3,4-tetrazol-1-yl]methyl}-1H-1,2,3-triazol-4-yl)pyridin-3-yl]oxy}cyclohexane-1-carboxylic acid] | 580 |

Results, then the compound that gave them:

| IC50 [nM] | Structure (SMILES) |
| --- | --- |
| 118 | Cc1nc(-c2nnn(C)c2Cn2nnnc2CC(C)C)ccc1O[C@H]1CCC[C@H](C(=O)O)C1 [Example 328, (1S,3S)-3-((6-(5-((5-isobutyl-1H-tetrazol-1-yl)methyl)-1-methyl-1H-1,2,3-triazol-4-yl)-2-methylpyridin-3-yl)oxy)cyclohexane-1-carboxylic acid] |
| 14 | Cc1nc(-c2nnn(C)c2Cn2nnc(C3CCCC3)n2)ccc1O[C@H]1CCC[C@H](C(=O)O)C1 [Example 329, (1S,3S)-3-((6-(5-((5-cyclopentyl-2H-tetrazol-2-yl)methyl)-1-methyl-1H-1,2,3-triazol-4-yl)-2-methylpyridin-3-yl)oxy)cyclo-hexane-1-carboxylic acid] |
| 30 | Cc1nc(-c2nnn(C)c2Cn2nnc(OCC3CCC3)n2)ccc1O[C@H]1CCC[C@H](C(=O)O)C1 [Example 332, (1S,3S)-3-{[6-(5-{[5-(cyclobutyl-methoxy)-2H-1,2,3,4-tetrazol-2-yl]methyl}-1-methyl-1H-1,2,3-triazol-4-yl)-2-methylpyridin-3-yl]oxy}cyclohexane-1-carboxylic acid] |
| 546 | Cc1nc(-c2nnn(C)c2Cn2nnc(OC3CCCC3)n2)ccc1O[C@H]1CCC[C@@H](C(=O)O)C1 [Example 337, (1R,3S)-3-{[6-(5-{[5-(cyclopentyloxy)-2H-1,2,3,4-tetrazol-2-yl]methyl}-1-methyl-1H-1,2,3-triazol-4-yl)-2-methylpyridin-3-yl]oxy}cyclohexane-1-carboxylic acid] |
| 43 | Cc1nc(-c2nnn(C)c2Cn2nnc(OCC3CC(F)(F)C3)n2)ccc1O[C@H]1CCC[C@H](C(=O)O)C1 [Example 338] |
| 97 | CCCOc1nnn(Cc2c(-c3ccc(O[C@H]4CCC[C@H](C(=O)O)C4)c(C)n3)nnn2C)n1 [Example 340] |
| 81 | Cc1nc(-c2nnn(C)c2Cn2nnc(OC3CC3)n2)ccc1O[C@H]1CCC[C@@H](C(=O)O)C1 [Example 341, (3S)-3-[(6-{5-[(5-cyclopropoxy-2H-1,2,3,4-tetrazol-2-yl)methyl]-1-methyl-1H-1,2,3-triazol-4-yl}-2-methylpyridin-3-yl)oxy]cyclo-hexane-1-carboxylic acid] |
| 25 | Cc1nc(-c2nnn(C)c2Cn2nnc(OCC(C)C)n2)ccc1O[C@H]1CCC[C@H](C(=O)O)C1 [Example 344, (1S,3S)-3-{[2-methyl-6-(1-methyl-5-{[5-(2-methylpropoxy)-2H-1,2,3,4-tetrazol-2-yl]methyl}-1H-1,2,3-triazol-4-yl)pyridin-3-yl]oxy}cyclohexane-1-carboxylic acid] |
| 49 | Cc1nc(-c2nnn(C)c2Cn2nnc(OC(C)C)n2)ccc1O[C@H]1CCC[C@H](C(=O)O)C1 [Example 346, (1S,3S)-3-{[2-methyl-6-(1-methyl-5-{[5-(propan-2-yloxy)-2H-1,2,3,4-tetrazol-2-yl]methyl}-1H-1,2,3-triazol-4-yl)pyridin-3-yl]oxy}cyclohexane-1-carboxylic acid] |
| 304 | Cc1c(O[C@H]2CCC[C@H](C(=O)O)C2)ccc(-c2nnn(C)c2Cn2nnc(OCC3CC3)n2)[n+]1[O-] [Example 349, 3-{[(1S,3S)-3-carboxycyclohexyl]oxy}-6-(5-{[5-(cyclopropyl-methoxy)-2H-1,2,3,4-tetrazol-2-yl]methyl}-1-methyl-1H-1,2,3-triazol-4-yl)-2-methylpyridin-1-ium-1-olate] |
| 152 | Cc1nc(-c2nnn(C)c2Cn2nnnc2OCC2CC2)ccc1O[C@H]1CCC[C@H](C(=O)O)C1 [Example 351, (1S,3S)-3-{[6-(5-{[5-(cyclopropyl-methoxy)-1H-1,2,3,4-tetrazol-1-yl]methyl}-1-methyl-1H-1,2,3-triazol-4-yl)-2-methylpyridin-3-yl]oxy}cyclohexane-1-carboxylic acid] |
